Data set [1] has as its system rabbit. The conditions noted are these: Prenatal developmental toxicity study; new zealand white; Oral; Gavage/Intubation; dose end: 19 GD; group: maternal; reproductive / reproductive performance / postimplantation loss / postimplantation loss + reproductive / reproductive performance / ….
The subject of data set [2] is dog. Particulars: Chronic toxicity; beagle; Oral; Capsule; dose end: 52 week; group: systemic; systemic / clinical chemistry / cholesterol / cholesterol + systemic / hematology / lymphocyte / lymphocyte + systemic / in life observation….
The test system of data set [3] is rat. Particulars: Subchronic oral toxicity in rodents, sprague dawley, Feed, dose end: 13 week, group: systemic.
Data set [4] relates to rat. Particulars: Prenatal developmental toxicity study, other, Oral, Gavage/Intubation, dose end: 15 GD.
Data set [5] has as its system rat. The conditions noted are these: Multigenerational reproductive toxicity study, other, Oral, Feed, dose end: 2 generation.
The subject of data set [6] is rat. Particulars: Combined chronic toxicity/carcinogenicity; sprague dawley; Oral; Feed; dose end: 104 week; group: systemic; systemic / in life observation / body weight / body weight.
For data set [7], the system named is mouse. Particulars: Carcinogenicity; cd1; Oral; Feed; dose end: 78 week; group: systemic; systemic / in life observation / body weight / body weight gain + systemic / pathology microscopic / epididymis / concretion + systemic / ….
Data set [8] concerns rat. The conditions noted are these: Other (NonGuideline or Guideline Not Listed); sprague dawley; Oral; Gavage/Intubation; dose end: 7 day; group: cannot be grouped; systemic / clinical chemistry / alanine aminotransferase (alt/sgpt) / alanine aminotransferase (alt/sgpt) + systemic / clinical chemistry / ….
Setting [9] is: systemic / clinical chemistry / alanine aminotransferase (alt/sgpt) / alanine aminotransferase (alt/sgpt) + systemic / clinical chemistry / ….
Setting [10] is: group: developmental, developmental / developmental malformation / bone / bipartite ossification + developmental / developmental malformation / bone / cervical + ….
[11] abbreviates: group: maternal, reproductive / reproductive performance / postimplantation loss / postimplantation loss + reproductive / reproductive performance / ….
The mark [12] stands for this setting: group: offspring, systemic / in life observation / body weight / offspring (pup) weight.
Where [13] appears, read: group: parental, systemic / in life observation / body weight / body weight gain + systemic / in life observation / food consumption / food consumption.

The values below come from EPA's ToxRefDB 2.

The structures appear in SMILES notation.

As a reminder, the LOAEL is the lowest tested level that showed an adverse finding. The NOAEL is the highest dose or exposure tested at which no adverse effect was seen. In the case of `COC(=O)c1c(Cl)nn(C)c1S(=O)(=O)NC(=O)Nc1nc(OC)cc(OC)n1` [Halosulfuron-methyl], the LEL in data set [1] worked out at 150 mg/kg/day; in data set [2], 10 mg/kg/day; in data set [3] (systemic / pathology microscopic / kidney / hemosiderosis), 116 mg/kg/day; in data set [4] (setting [10]), 750 mg/kg/day; in data set [4] (setting [11]), 750 mg/kg/day; in data set [5] (setting [12]), 61 mg/kg/day. Further, the LEL in data set [5] (group: parental, systemic / in life observation / body weight / body weight) was found to be 69.7 mg/kg/day; in data set [6] it was 139 mg/kg/day; in data set [7], 972 mg/kg/day. The lowest-observed-adverse-effect level (LOAEL) in data set [1] is 150 mg/kg/day; in data set [2] it was 10 mg/kg/day; in data set [3] (setting [9]), 497 mg/kg/day; in data set [4] (setting [10]) it was 750 mg/kg/day; in data set [4] (setting [11]) it was 750 mg/kg/day; in data set [5] (setting [12]) it was more than 274 mg/kg/day. Further, the LOAEL in data set [5] (setting [13]) worked out at 223 mg/kg/day; in data set [6] it was 139 mg/kg/day; in data set [7] it was 972 mg/kg/day. Further, the NEL was 50 mg/kg/day in data set [1]; 1 mg/kg/day in data set [2]; 28.8 mg/kg/day in data set [3] (setting [9]); 250 mg/kg/day in data set [4] (setting [10]); 250 mg/kg/day in data set [4] (setting [11]); 7.4 mg/kg/day in data set [5] (setting [12]). Also, the NEL in data set [5] (group: parental, systemic / in life observation / body weight / body weight + systemic / in life observation / food consumption / food consumption) was 8.9 mg/kg/day; in data set [6], 56.3 mg/kg/day; in data set [7], 410 mg/kg/day. Also, the NOAEL in data set [1] is 50 mg/kg/day; in data set [2], 1 mg/kg/day; in data set [3] (setting [9]), 116 mg/kg/day; in data set [4] (setting [10]), 250 mg/kg/day; in data set [4] (setting [11]) it was 250 mg/kg/day; in data set [5] (setting [12]) it was not below 274 mg/kg/day. Further, the no observed adverse effect level (NOAEL) worked out at 50.4 mg/kg/day in data set [5] (setting [13]), 56.3 mg/kg/day in data set [6] and 410 mg/kg/day in data set [7].
For `Fc1ccccc1[C@@H](F)COC1CCC(Nc2ncnc3[nH]ncc23)CC1` (stereo not given in full) [MK-968], in data set [8], the LEL was 300 mg/kg/day, the LOAEL is more than 750 mg/kg/day, the NEL stood at 10 mg/kg/day and the no-observed-adverse-effect level (NOAEL) is not below 750 mg/kg/day.
